Laboratory results: ChEMBL document CHEMBL3638542, “Imidazo[1,2-a]pyridine derivatives: preparation and pharmaceutical applications” (2014)

The compounds below were run against Histone deacetylase 1 (Homo sapiens, UniProt Q13547) (assay: BIOMOL Fluorescent-Based Assay: The assay has been carried out in 96 well format and the BIOMOL fluorescent-based HDAC activity assay has been applied. The reaction composed of assay buffer, containing 25 mM Tris pH 7.5, 137 mM NaCl, 2.7 mM KCl, 1 mM MgCl2, 1 mg/ml BSA, tested compounds, an appropriate concentration of HDAC1 enzyme, 500 uM Flur de lys generic substrate for HDAC1 enzyme and subsequently was incubated at room temperature for 2 h. Flur de lys Developer was added and the reaction was incubated for 10 min. Briefly, deacetylation of the substrate sensitizes it to the developer, which then generates a fluorophore. The fluorophore is excited with 360 nm light and the emitted light (460 nm) is detected on a fluorometric plate reader (Tecan Ultra Microplate detection system, Tecan Group Ltd.).).
Chain of Histone deacetylase 1 (Q13547 whole entry): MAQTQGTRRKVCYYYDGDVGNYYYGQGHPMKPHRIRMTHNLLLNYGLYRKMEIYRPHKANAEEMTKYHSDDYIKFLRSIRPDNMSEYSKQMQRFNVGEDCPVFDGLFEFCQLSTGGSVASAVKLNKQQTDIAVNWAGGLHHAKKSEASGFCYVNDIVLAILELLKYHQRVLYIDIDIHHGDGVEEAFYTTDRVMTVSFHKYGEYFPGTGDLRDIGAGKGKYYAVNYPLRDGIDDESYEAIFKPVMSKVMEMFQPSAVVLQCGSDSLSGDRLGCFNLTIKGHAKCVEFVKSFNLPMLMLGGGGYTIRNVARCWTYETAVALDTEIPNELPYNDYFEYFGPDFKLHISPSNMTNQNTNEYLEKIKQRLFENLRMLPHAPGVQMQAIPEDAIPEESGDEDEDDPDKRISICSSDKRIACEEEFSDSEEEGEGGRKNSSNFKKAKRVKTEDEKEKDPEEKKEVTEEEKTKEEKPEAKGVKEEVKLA

Structure (SMILES)	IC50 [nM]
COCCNc1c(CCC(=O)O)nc2ccc(/C=C/C(=O)NO)cn12	320
CC(C)(C)Nc1c(C(=O)O)nc2ccc(/C=C/C(=O)NO)cn12	> 10000
CCCCCCc1nc2cc(/C=C/C(=O)NO)ccn2c1NCCC(=O)N(C)CC#N	> 10000
CCCCc1nc2cc(/C=C/C(=O)NO)ccn2c1CN(CC)CC(C)CCC (centres undefined)	60
